Laboratory results from US20250381110A1, “SKIN CARE COMPOSITION AND METHOD OF USING THE SAME” (THE PROCTER & GAMBLE COMPANY, priority 2024, published 2025).
Structures can show the parent of a compound that is named as a salt.

Tested on: p62-dependent mitophagy
Test: Luciferase-p62 assay (Fluc-p62 clearance) in mouse embryonic fibroblasts
Format: cell-based
Settings: for Mean Luminescence: Luciferase-p62 assay, mouse embryonic fibroblasts (MEFs), compounds at 10 μM; for % Activity over baseline: percentage of Luciferase-p62 clearance relative to baseline (mean luminescence in the absence of doxycycline induction); for % Activity over baseline / % Activity relative to Rapamycin: MEFs, 10 μM; for % Activity relative to Rapamycin: percentage of activity relative to rapamycin tested in the same experiment at the same concentration
Protocol: To identify p62-dependent materials which increase mitophagy, a Luciferase-p62 Assay was established. This method provides an approach to measure the ability of a material to modulate p62-dependent mitophagy by using an inducible firefly luciferase-p62 (Fluc-p62) reporter cell system. In this assay, p62 levels are driven by doxycycline treatment. After levels increased, expression of Fluc-p62 is turned off by removal of doxycycline, materials are then added and assessed for how they affect clearance of Fluc-p62 protein, which is proportionate to cellular mitophagy rates (Kelly et al.). The negative control is doxycycline induced Luc-p62 in the absence of compound or bioactive material treatment and in the presence of vehicle (DMSO).
Test materials including bioactive materials were screened in mouse embryonic fibroblasts (MEFs, Harada et al.) expressing the TET-inducible p62-fluc construct as previously described (Brown et al.). […] Gibson assembly was used to insert firefly luciferase (Fluc) and p62 into the pCW57.1 backbone. Fluc, p62, and pCW57.1 were polymerase chain reaction (PCR) amplified using pfu polymerase (Life technologies) and Gibson assembly primers with 20 base pair (bp) overhangs. PCR products were separated by agarose gel electrophoreses, and fragments excised and purified before use in DNA assembly reaction with NEBuilder HiFi DNA Assembly kit (New England Biolabs). After the assembly, the reaction mix was transformed into NEB3040 Stable Competent Escherichia coli (New England Biolabs). After 24 hours growth at 31 degrees Celsius the plasmid was extracted using QIAprep Spin Miniprep kit (Qiagen). The plasmid was sequenced to confirm correct insertion of Fluc-p62. To generate MEFs stably expressing doxycycline inducible Fluc-p62, HEK293FT cells were transfected with Fluc-p62-pCW57.1 and the ViraPower Packaging Mix (Invitrogen) to produce lentivirus. MEFs were transduced with the obtained lentiviral stock following followed by selection with 1 microgram per milliliter puromycin.Fluc-p62expressing MEFs were maintained in DMEM supplemented with 10 percent fetal bovine serum (FBS), 100 units per milliliter penicillin/streptomycin, and 2 millimolar L-glutamine in a humidified atmosphere containing 5 percent carbon dioxide at 37 degrees Celsius. Cells were plated into white 96 well plates (2,000 cells per well with 100 microliters media) and allowed to settle for 24 hours. […] Subsequently, cells were treated with test materials for 48 hours in normal growth medium and analysed using ONE-Glo™+Tox Luciferase Reporter and Cell Viability Assay (Promega) by following the manufacturer's protocol.
Test compositions and control compositions were prepared as described above in the Luciferase-p62 assay (Method 3) and tested accordingly. The compounds used in this example, as examples of bioactive materials, were from the APExBIO DiscoveryProbe™ Natural Product Library Plus (Houston, TX) and evaluated at equivalent concentrations (10 μM).
Data are additionally calculated as percentage of activity relative to rapamycin, a benchmark control compound tested in the same experiment.

Molecule	Mean Luminescence	% Activity over baseline [%]	% Activity relative to Rapamycin [%]
C[C@H](CCC(=O)O)[C@H]1CC[C@H]2[C@@H]3[C@H](O)C[C@@H]4C[C@H](O)CC[C@]4(C)[C@H]3CC[C@]12C [Chenodeoxycholic Acid]	999.71	38.22	68.86
C[C@H](CCC(=O)O)[C@H]1CC[C@H]2[C@@H]3CC[C@@H]4C[C@H](O)CC[C@]4(C)[C@H]3C[C@H](O)[C@]12C [Deoxycholic acid sodium salt]	591.12	63.47	114.35
Picrotoxin	868.69	46.31	83.45
CO[C@H]1C(=O)[C@]2(C)[C@@H](OC)C[C@H]3OC[C@@]3(OC(C)=O)[C@H]2[C@H](OC(=O)c2ccccc2)[C@]2(O)C[C@H](OC(=O)[C@H](O)[C@@H](NC(=O)OC(C)(C)C)c3ccccc3)C(C)=C1C2(C)C [Cabazitaxel]	929.36	42.56	76.69
C=C1CC[C@H](O)C/C1=C/C=C1\CCC[C@]2(C)[C@@H]([C@H](C)CCCC(C)C)CC[C@@H]12 [Vitamin D3]	488.16	69.83	125.82
CC(C)CC(=O)NCC(=O)O [Isovaleroylglycine]	776.88	51.99	93.67
CC(C)(CO)C(O)C(=O)NCCC(=O)[O-].CC(C)(CO)C(O)C(=O)NCCC(=O)[O-].[Ca+2] [Calcium D-Panthotenate]	981.67	39.33	70.87
C/C(=C\CNc1ncnc2nc[nH]c12)CO [trans-Zeatin]	994.70	38.53	69.42
NC(=O)Cc1ccccc1 [Compound 2-Phenylacetamide, 2-Phenylacetamide]	861.95	46.73	84.20
CCCCCOC(=O)Nc1nc(=O)n([C@@H]2O[C@H](C)[C@@H](O)[C@H]2O)cc1F [Capecitabine]	918.89	43.21	77.86
CC(C)(CO)C(O)C(=O)NCCCO (racemic) [DL-Panthenol]	991.50	38.72	69.77
C[C@]12C[C@H](O)[C@H]3[C@@H](CCC4=CC(=O)CC[C@@]43C)[C@@H]1CC[C@@H]2C(=O)CO [Corticosterone]	870.00	46.23	83.30
C[C@@H]1C(=O)O[C@H]2C[C@@]34[C@H]5C[C@@H](C(C)(C)C)[C@]36[C@@H](OC(=O)[C@@H]6O)O[C@@]4(C(=O)O5)[C@]21O [Ginkgolide A]	977.84	39.57	71.29
CC(=O)O[C@]1(C(C)=O)CC[C@H]2[C@@H]3C[C@H](C)C4=CC(=O)CC[C@]4(C)[C@H]3CC[C@@]21C [Medroxyprogesterone acetate]	800.04	50.56	91.09
C[C@@H]1CCCCCCCCCCCCC(=O)C1 [Muscone]	869.43	46.27	83.36
CCC/C=C1\OC(=O)C2=C1CCC=C2 [Z-Ligustilide]	895.67	44.65	80.44
C/C=C(\C)C(=O)O [Tiglic acid]	947.74	41.43	74.64
CC[C@H]1OC(=O)[C@H](C)[C@@H](O[C@H]2C[C@@](C)(OC)[C@@H](O)[C@H](C)O2)[C@H](C)[C@@H](O[C@@H]2O[C@H](C)C[C@H](N(C)C)[C@H]2O)[C@](C)(OC)C[C@@H](C)C(=O)[C@H](C)[C@@H](O)[C@]1(C)O [Clarithromycin]	941.49	41.82	75.34

Molecule	Mean Luminescence	% Activity over baseline [%]	% Activity relative to Rapamycin [%]
CCN1C(=O)C=CC1=O [N-Ethylmaleimide (NEM)]	668.28	58.70	105.76
O=c1oc2cc(O)ccc2c2ccc(O)cc12 [Urolithin A]	884.12	45.36	81.73
COc1cc(O)c(CC=C(C)C)c(O)c1C(=O)/C=C/c1ccc(O)cc1 [Xanthohumol]	485.82	69.98	126.08
CO/N=C(\C(=O)N[C@@H]1C(=O)N2C(C(=O)O)=C(CSC(=O)c3ccco3)CS[C@H]12)c1csc(N)n1 [Ceftiofur HCl]	781.02	51.73	93.21
C=C1CCC2C(C=C(C)C(=O)C3(OC(C)=O)CC(C)C(OC(=O)c4ccccc4)C3C1OC(C)=O)C2(C)C (stereo not drawn) [5,15-Diacetyl-3-benzoyllathyrol]	927.14	42.70	76.94
O[C@@H]1[C@@H](O)[C@H](OC/C=C/c2ccccc2)O[C@H](CO[C@@H]2OC[C@H](O)[C@H](O)[C@H]2O)[C@H]1O [Rosavin]	983.74	39.20	70.64
Tubeimoside I	257.38	84.09	151.52
COC(=O)[C@H]1[C@H]2C[C@@H]3c4[nH]c5cc(OC)ccc5c4CCN3C[C@H]2C[C@@H](OC(=O)c2cc(OC)c(OC)c(OC)c2)[C@@H]1OC [Reserpine hydrochloride]	810.13	49.93	89.97
Cc1ccc(C(C)C)cc1O [Carvacrol]	937.62	42.05	75.77
O=c1ccn2c(n1)O[C@H]1[C@H](O)[C@@H](CO)O[C@H]12 [2,2′-Cyclouridine]	935.30	42.20	76.03
CN1[C@@H]2C[C@@H](OC(=O)[C@H](CO)c3ccccc3)C[C@H]1[C@@H]1O[C@@H]12 [Scopolamine hydrobromide]	937.62	42.05	75.77
C[C@]12CCC(=O)C=C1CC[C@@H]1[C@@H]2[C@@H](O)C[C@@]2(C)[C@H]1CC[C@]2(O)C(=O)COC(=O)CCC(=O)[O-].[Na+]	927.92	42.65	76.85
CN(CC(=O)O)C(=N)N.O [Creatine monohydrate]	901.68	44.28	79.77
CC(=O)NCCc1c[nH]c2ccc(O)cc12 [N-Acetylserotonin]	978.08	39.55	71.27
N[C@@H](Cc1c[nH]c2ccc(O)cc12)C(=O)O [Compound 5-HTP]	902.36	44.23	79.70
CCc1c(Cl)c(O)c(Cl)c(O)c1C(=O)O[C@H]1[C@H](O)[C@H](OC)[C@H](OC/C2=C\C=C\C[C@H](O)/C(C)=C/[C@H](CC)[C@@H](O[C@@H]3OC(C)(C)[C@@H](OC(=O)C(C)C)[C@H](O)[C@@H]3O)/C(C)=C/C(C)=C/C[C@@H]([C@@H](C)O)OC2=O)O[C@@H]1C [Fidaxomicin]	262.87	83.75	150.90
CO[C@H]1O[C@@H]2O[C@@]3(C)CC[C@H]4[C@H](C)CC[C@@H]([C@H]1C)[C@@]24OO3 [Artemether (SM-224)]	596.56	63.13	113.75
